How the values were obtained:
Type in all cases: functional
HOP-92 [1] = test: Cytotoxicity against human HOP92 cells assessed as cell growth at 0.1 uM after 48 hrs by sulforhodamine B assay relative to control; conditions: HOP-92, 48 h, read-out: Activity
LOX IMVI [2] = test: Cytotoxicity against human LOXIMVI cells assessed as cell growth at 1 uM after 48 hrs by sulforhodamine B assay relative to control; conditions: read-out: Activity
HOP-92 [3] = test: Cytotoxicity against human HOP92 cells assessed as cell growth at 0.01 uM after 48 hrs by sulforhodamine B assay relative to control; conditions: HOP-92, 48 h, read-out: Activity
HOP-92 [4] = test: Cytotoxicity against human HOP92 cells assessed as cell growth at 1 uM after 48 hrs by sulforhodamine B assay relative to control; conditions: HOP-92, 48 h, read-out: Activity
LOX IMVI [5] = test: Cytotoxicity against human LOXIMVI cells assessed as cell growth at 0.1 uM after 48 hrs by sulforhodamine B assay relative to control; conditions: read-out: Activity
HOP-92 [6] = test: Cytotoxicity against human HOP92 cells assessed as cell growth at 100 uM after 48 hrs by sulforhodamine B assay relative to control; conditions: HOP-92, 48 h, read-out: Activity
HOP-92 [7] = test: Cytotoxicity against human HOP92 cells assessed as growth inhibition after 48 hrs by sulforhodamine B assay; conditions: HOP-92, 48 h; for CC50: read-out: LC50 (the source's name)
SK-MEL-2 [8] = test: Cytotoxicity against human SK-MEL-2 cells assessed as cell growth at 100 uM after 48 hrs by sulforhodamine B assay relative to control; conditions: SK-MEL-2, 48 h, read-out: Activity
SF-295 [9] = test: Cytotoxicity against human SF295 cells assessed as cell growth at 10 uM after 48 hrs by sulforhodamine B assay relative to control; conditions: SF-295, 48 h, read-out: Activity
SK-MEL-2 [10] = test: Cytotoxicity against human SK-MEL-2 cells assessed as cell growth at 0.1 uM after 48 hrs by sulforhodamine B assay relative to control; conditions: SK-MEL-2, 48 h, read-out: Activity
HOP-92 [11] = test: Cytotoxicity against human HOP92 cells assessed as cell growth at 10 uM after 48 hrs by sulforhodamine B assay relative to control; conditions: HOP-92, 48 h, read-out: Activity
SK-MEL-2 [12] = test: Cytotoxicity against human SK-MEL-2 cells assessed as cell growth at 1 uM after 48 hrs by sulforhodamine B assay relative to control; conditions: SK-MEL-2, 48 h, read-out: Activity
LOX IMVI [13] = test: Cytotoxicity against human LOXIMVI cells assessed as cell growth at 0.01 uM after 48 hrs by sulforhodamine B assay relative to control; conditions: read-out: Activity
SNB-75 [14] = test: Cytotoxicity against human SNB75 cells assessed as cell growth at 0.1 uM after 48 hrs by sulforhodamine B assay relative to control; conditions: SNB-75, 48 h, read-out: Activity
SNB-75 [15] = test: Cytotoxicity against human SNB75 cells assessed as cell growth at 0.01 uM after 48 hrs by sulforhodamine B assay relative to control; conditions: SNB-75, 48 h, read-out: Activity
SF-295 [16] = test: Cytotoxicity against human SF295 cells assessed as cell growth at 0.01 uM after 48 hrs by sulforhodamine B assay relative to control; conditions: SF-295, 48 h, read-out: Activity
SNB-75 [17] = test: Cytotoxicity against human SNB75 cells assessed as growth inhibition after 48 hrs by sulforhodamine B assay; conditions: SNB-75, 48 h
SF-295 [18] = test: Cytotoxicity against human SF295 cells assessed as cell growth at 0.1 uM after 48 hrs by sulforhodamine B assay relative to control; conditions: SF-295, 48 h, read-out: Activity
SK-MEL-2 [19] = test: Cytotoxicity against human SK-MEL-2 cells assessed as cell growth at 10 uM after 48 hrs by sulforhodamine B assay relative to control; conditions: SK-MEL-2, 48 h, read-out: Activity
SF-295 [20] = test: Cytotoxicity against human SF295 cells assessed as cell growth at 1 uM after 48 hrs by sulforhodamine B assay relative to control; conditions: SF-295, 48 h, read-out: Activity
LOX IMVI [21] = test: Cytotoxicity against human LOXIMVI cells assessed as cell growth at 10 uM after 48 hrs by sulforhodamine B assay relative to control; conditions: read-out: Activity
SNB-75 [22] = test: Cytotoxicity against human SNB75 cells assessed as cell growth at 10 uM after 48 hrs by sulforhodamine B assay relative to control; conditions: SNB-75, 48 h, read-out: Activity
SK-MEL-2 [23] = test: Cytotoxicity against human SK-MEL-2 cells assessed as cell growth at 0.01 uM after 48 hrs by sulforhodamine B assay relative to control; conditions: SK-MEL-2, 48 h, read-out: Activity
SF-295 [24] = test: Cytotoxicity against human SF295 cells assessed as cell growth at 100 uM after 48 hrs by sulforhodamine B assay relative to control; conditions: SF-295, 48 h, read-out: Activity
LOX IMVI [25] = test: Cytotoxicity against human LOXIMVI cells assessed as cell growth at 100 uM after 48 hrs by sulforhodamine B assay relative to control; conditions: read-out: Activity
SF-295 [26] = test: Cytotoxicity against human SF295 cells assessed as growth inhibition after 48 hrs by sulforhodamine B assay; conditions: SF-295, 48 h
SNB-75 [27] = test: Cytotoxicity against human SNB75 cells assessed as cell growth at 1 uM after 48 hrs by sulforhodamine B assay relative to control; conditions: SNB-75, 48 h, read-out: Activity
CAKI-1 [28] = test: Cytotoxicity against human Caki1 cells assessed as cell growth at 1 uM after 48 hrs by sulforhodamine B assay relative to control; conditions: CAKI-1, 48 h, read-out: Activity
CAKI-1 [29] = test: Cytotoxicity against human Caki1 cells assessed as cell growth at 0.1 uM after 48 hrs by sulforhodamine B assay relative to control; conditions: CAKI-1, 48 h, read-out: Activity
CAKI-1 [30] = test: Cytotoxicity against human Caki1 cells assessed as cell growth at 0.01 uM after 48 hrs by sulforhodamine B assay relative to control; conditions: CAKI-1, 48 h, read-out: Activity
CAKI-1 [31] = test: Cytotoxicity against human Caki1 cells assessed as cell growth at 10 uM after 48 hrs by sulforhodamine B assay relative to control; conditions: CAKI-1, 48 h, read-out: Activity
CAKI-1 [32] = test: Cytotoxicity against human Caki1 cells assessed as cell growth at 100 uM after 48 hrs by sulforhodamine B assay relative to control; conditions: CAKI-1, 48 h, read-out: Activity
CAKI-1 [33] = test: Cytotoxicity against human Caki1 cells assessed as growth inhibition after 48 hrs by sulforhodamine B assay; conditions: CAKI-1, 48 h

| Structure (SMILES) | growth at 0.1 µM (HOP-92 [1]) [%] | growth at 1 µM (LOX IMVI [2]) [%] | growth at 0.01 µM (HOP-92 [3]) [%] | growth at 1 µM (HOP-92 [4]) [%] | growth at 0.1 µM (LOX IMVI [5]) [%] | growth at 100 µM (HOP-92 [6]) [%] | TGI (HOP-92 [7]) [µM] | CC50 (HOP-92 [7]) [µM] | growth at 100 µM (SK-MEL-2 [8]) [%] | growth at 10 µM (SF-295 [9]) [%] | growth at 0.1 µM (SK-MEL-2 [10]) [%] | growth at 10 µM (HOP-92 [11]) [%] | growth at 1 µM (SK-MEL-2 [12]) [%] | growth at 0.01 µM (LOX IMVI [13]) [%] | growth at 0.1 µM (SNB-75 [14]) [%] | growth at 0.01 µM (SNB-75 [15]) [%] | growth at 0.01 µM (SF-295 [16]) [%] | TGI (SNB-75 [17]) [µM] | growth at 0.1 µM (SF-295 [18]) [%] | growth at 10 µM (SK-MEL-2 [19]) [%] | further results |
| --- | --- | --- | --- | --- | --- | --- | --- | --- | --- | --- | --- | --- | --- | --- | --- | --- | --- | --- | --- | --- | --- |
| COc1ccc(-c2cc(/C=C/C(=O)c3ccc(N)cc3)[nH]n2)cc1OC | 87 | 96 | 86 | 87 | 102 | -81 | 30.9 | 63.9 | -86 | 20 | 109 | 77 | 102 | 100 | 92 | 81 | 83 | 14.2 | 90 | 46 | GI50 (HOP-92 [7]): 1.49 µM; GI50 (SNB-75 [17]): 2.74 µM; LC50 (concentration killing 50% of cells) (SNB-75 [17]): 39 µM; growth at 1 µM (SF-295 [20]): 87%; growth at 10 µM (LOX IMVI [21]): -66%; growth at 10 µM (SNB-75 [22]): 17%; growth at 0.01 µM (SK-MEL-2 [23]): 103%; growth at 100 µM (SF-295 [24]): -91%; growth at 100 µM (LOX IMVI [25]): -81%; GI50 (SF-295 [26]): 3.58 µM; LC50 (SF-295 [26]): 42.9 µM; TGI (SF-295 [26]): 15.2 µM; growth at 1 µM (SNB-75 [27]): 75% |
| COc1ccc(-c2cc(/C=C/C(=O)c3cc(OC)c(OC)c(OC)c3)[nH]n2)cc1OC | 74 | 78 | 103 | 70 | 94 | -84 | 5.48 | 26.6 | -92 | -46 | 95 | -25 | 97 | 96 | 77 | 88 | 97 | 3.77 | 87 | -12 | GI50 (HOP-92 [7]): 1.61 µM; GI50 (SNB-75 [17]): 1.31 µM; LC50 (concentration killing 50% of cells) (SNB-75 [17]): 12.7 µM; growth at 1 µM (SF-295 [20]): 77%; growth at 10 µM (LOX IMVI [21]): -91%; growth at 10 µM (SNB-75 [22]): -46%; growth at 0.01 µM (SK-MEL-2 [23]): 100%; growth at 100 µM (SF-295 [24]): -91%; growth at 100 µM (LOX IMVI [25]): -69%; GI50 (SF-295 [26]): 1.67 µM; LC50 (SF-295 [26]): 12.5 µM; TGI (SF-295 [26]): 4.26 µM; growth at 1 µM (SNB-75 [27]): 63% |
| COc1ccc(C(=O)/C=C/c2cc(-c3ccc(OC)c(OC)c3)n[nH]2)cc1OC | 81 | 68 | 83 | 74 | 99 | -15 | 8.12 | > 100 | -58 | -30 | 113 | -7 | 111 | 100 | 89 | 82 | 85 | 2.96 | 90 | -44 | GI50 (HOP-92 [7]): 1.97 µM; GI50 (SNB-75 [17]): 1.16 µM; growth at 1 µM (SF-295 [20]): 70%; growth at 10 µM (LOX IMVI [21]): -89%; growth at 10 µM (SNB-75 [22]): -65%; growth at 0.01 µM (SK-MEL-2 [23]): 110%; growth at 100 µM (SF-295 [24]): -57%; growth at 100 µM (LOX IMVI [25]): -91%; GI50 (SF-295 [26]): 1.6 µM; TGI (SF-295 [26]): 5.05 µM; growth at 1 µM (SNB-75 [27]): 58% |
| COc1ccc(C(=O)/C=C/c2cc(-c3ccc4c(c3)OCO4)n[nH]2)cc1OC | 87 | 97 | 85 | 79 | 99 | -61 | 8.11 | 62.2 | -68 | -27 | 95 | -8 | 107 | 100 | 76 | 78 | 95 | 7.57 | 98 | 39 | growth at 1 µM (CAKI-1 [28]): 89%; growth at 0.1 µM (CAKI-1 [29]): 100%; growth at 0.01 µM (CAKI-1 [30]): 93%; growth at 10 µM (CAKI-1 [31]): -51%; LC50 (concentration killing 50% of cells) (SNB-75 [17]): 27.7 µM; growth at 1 µM (SF-295 [20]): 101%; growth at 100 µM (CAKI-1 [32]): -65%; growth at 10 µM (LOX IMVI [21]): -62%; growth at 10 µM (SNB-75 [22]): -10%; growth at 0.01 µM (SK-MEL-2 [23]): 98%; growth at 100 µM (SF-295 [24]): -93%; growth at 100 µM (LOX IMVI [25]): -78%; LC50 (CAKI-1 [33]): 9.84 µM; TGI (CAKI-1 [33]): 4.33 µM; LC50 (SF-295 [26]): 22.2 µM; TGI (SF-295 [26]): 6.15 µM; growth at 1 µM (SNB-75 [27]): 76% |
